# ± gives the expanded uncertainty stated by the source.
# Conditions: 101.33 kPa, Liquid, Pycnometric method
mass density (303.15 K) [kg/m3],mass density (313.15 K) [kg/m3],mass density (323.15 K) [kg/m3],SMILES
1227.9 ± 2.1,1218 ± 2.1,1208.2 ± 2.1,"CC(=O)N(C)C.O=C(O)C(F)(F)F [N,N-dimethylacetamide trifluoroacetate]"
1246 ± 2.2,1232.9 ± 2.2,1219.9 ± 2.2,"CN(C)C=O.O=C(O)C(F)(F)F [N,N-dimethylformamide trifluoroacetate]"
1232.3 ± 2.1,1226.1 ± 2.1,1219.9 ± 2.1,CN1CCCC1=O.O=C(O)C(F)(F)F [N-methylpyrrolidone trifluoroacetate]

# From the NIST ThermoML archive (doi:10.1016/j.jct.2012.09.023)
